Results from patent EP4389762A1, “INHIBITORS OF DUX4 ACTIVITY AND THEIR USE IN THERAPY” (Ospedale San Raffaele S.r.l., priority 2022, dated 2024).

How the values were obtained:
DUX4 dbd = target: T1, DUX4 dbd (Homo sapiens, UniProt Q9UBX2); assay: His pull-down assay; format: binding; details: purified His-DUX4 dbd immobilized, biotinylated MATR3 peptides
T1 construct: employing pETGB1-6xHis-DUX4 dbd (residues 1-159) vector as template; GB1; made in house; host or cells: E. coli Rosetta2(DE3) pLys
T1 sequence (Q9UBX2 1-159): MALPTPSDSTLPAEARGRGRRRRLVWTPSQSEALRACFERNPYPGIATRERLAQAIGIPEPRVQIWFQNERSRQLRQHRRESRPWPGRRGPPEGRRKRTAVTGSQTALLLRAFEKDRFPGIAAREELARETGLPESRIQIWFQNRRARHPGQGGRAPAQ
Protocol: To test the interaction between 6xHis-DUX4 dbd and MATR3 synthetic peptides (prepared by CASLO; Lot No.: P230321-01-01, P230321-01-02, Lot No.: P230321-01-03), 40 pmol of 6xHis-DUX4 dbd were immobilized on His-Select Nickel Affinity gel beads (Sigma) incubating 1 hour on rotation at 4°C in IPP100 buffer (10 mM Tris-HCl pH 8.00, 100 mM NaCl, 0.1% NP-40) supplemented with 0,1 mM PMSF. Next, 4 pmol of MATR3 synthetic peptides were added incubating on rotation for 2 hours at 4°C. MATR3 peptides were incubated with the beads as negative control. Beads were washed 4 times with IPP100 buffer, boiled in 50 µl of Laemmli Sample Buffer (Bio-Rad), centrifuged and the eluted proteins were collected. Samples were stored at -20°C. Pull-down samples were boiled at 95°C for 5 minutes and bounded fractions (10%) were loaded on 15% SDS-Page acrylamide gel. The immunoblotting was performed following the procedure reported above but the wet transfer was performed at 200mA for 1.5 hours (instead of 2 hours) at 4°C. To test the interaction between DUX4 dbd and 6xHis-SUM03-MATR3(210-255), 40 pmol of 6xHis-SUMO3-MATR3(210-255) were immobilized on His-Select Nickel Affinity gel beads (Sigma) incubating 1 hour on rotation at 4°C in IPP100 buffer (10 mM Tris-HCl pH 8.00, 100 mM NaCl, 0.1% NP-40) supplemented with 0,1 mM PMSF. Next, 40 pmol of DUX4(15-155) without tag were added incubating on rotation for 2 hours at 4°C. DUX4(15-155) alone was incubated with the beads as negative control. Beads were washed 4 times with IPP100 buffer, boiled in 50 µl of Laemmli Sample Buffer (Bio-Rad), centrifuged and the eluted proteins were collected. Samples were stored at -20°C. Pull-down samples were boiled at 95°C for 5 minutes and bounded fractions (10%) were loaded on two identical 15% SDS-Page acrylamide gel. The immunoblotting was performed following the procedure reported below.

6xHis-DUX4 dbd = target: T2, 6xHis-DUX4 dbd (UniProt Q9UBX2 1-159); assay: GST pull-down with purified recombinant proteins
T2 construct: range 1-159; Expressed in E. coli from pET-GB1 and purified on nickel beads; The limits 1-159 come from the phrase pETGB1-6xHis-DUX4 dbd (residues 1-159); also called DUX4 dbd (HD1+HD2); not shown: 6xHis tag and GB1 solubility peptide of vector pET-GB1
T2 sequence (Q9UBX2 1-159): as above

## (Biotin)- ERCRDDSFFGETSHNYHKFDSEYERMGRGPG PLQERSLFEKKRGAPPSSNIEDFHGLLPK -NH2 [Peptide 3]
DUX4 dbd
  interaction with DUX4 dbd (pulldown, synthetic peptides): interacted with DUX4 dbd
DUX4 dbd; listed as Pep 3
  interaction with DUX4 dbd (pulldown, synthetic peptides): interact with DUX4 dbd

## (Biotin)- SFDDRGPSLNPVLDYDHGSRSQESGYYDRMD YEDDRLRDGERCRDDSFFGETSHNYHKFDS-NH2 [Peptide 2]
DUX4 dbd
  interaction with DUX4 dbd (pulldown, synthetic peptides): interacted with DUX4 dbd
DUX4 dbd; listed as Pep 2
  interaction with DUX4 dbd (pulldown, synthetic peptides): interact with DUX4 dbd

B1: GST-MATR3(2-151) (other)
chain: SKSFQQSSLSRDSQGHGRDLSAAGIGLLAAATQSLSMPASLGRMNQGTARLASLMNLGMSSSLNQQGAHSALSSASTSSHNLQSIFNIGSRGPLPLSSQHRGDADQASNILASFGLSARDLDELSRYPEDKITPENLPQILLQLKRRRTE
notes: not shown: GST tag and thrombin site of vector pGEX-2tk
6xHis-DUX4 dbd
  binding result: no binding (tested: 40 pmol each)
